The supplement of paper PMC10307832

What was measured:
Assay in all cases: relative viability (nuclei count vs DMSO), 5 days (fraction); higher = more cells survive
MLN4924 + Phenformin = compound: NS(=O)(=O)OC[C@@H]1C[C@@H](n2ccc3c(N[C@H]4CCc5ccccc54)ncnc32)C[C@@H]1O [MLN4924] + N=C(N)NC(=N)NCCc1ccccc1 [Phenformin] (partner 250 µM)
How it was run: (§1)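 For relative viability, nuclei counts in treated wells were divided by those in vehicle wells. Lung cancer cell lines had been pin-tool dosed in 1536-well plates the day after seeding and cultured for 5 days, then fixed and stained in one step (final 0.05% Triton X-100, 1% formaldehyde, 1 ug/ml Hoechst) and imaged at 4×. Doses were one drug alone or a fixed anchor-drug dose plus five library-drug doses (not always all listed) in √10 steps, and values are duplicate-plate medians.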

GSK126 + Luminespib = compound: CC[C@H](C)N1C=C(C2=C(C=C(C=C21)C3=CN=C(C=C3)N4CCNCC4)C(=O)NCC5=C(C=C(NC5=O)C)C)C [GSK126] + CCNC(=O)c1noc(-c2cc(C(C)C)c(O)cc2O)c1-c1ccc(CN2CCOCC2)cc1 [Luminespib] (partner 0.01 µM)
How it was run: as §1

MLN4924 + Crizotinib = compound: NS(=O)(=O)OC[C@@H]1C[C@@H](n2ccc3c(N[C@H]4CCc5ccccc54)ncnc32)C[C@@H]1O [MLN4924] + C[C@@H](Oc1cc(-c2cnn(C3CCNCC3)c2)cnc1N)c1c(Cl)ccc(F)c1Cl [Crizotinib] (partner 1 µM)
How it was run: as §1

MLN4924 + Luminespib = compound: NS(=O)(=O)OC[C@@H]1C[C@@H](n2ccc3c(N[C@H]4CCc5ccccc54)ncnc32)C[C@@H]1O [MLN4924] + CCNC(=O)c1noc(-c2cc(C(C)C)c(O)cc2O)c1-c1ccc(CN2CCOCC2)cc1 [Luminespib] (partner 0.01 µM)
How it was run: as §1

Cell Line	relative viability (MLN4924 + Phenformin; first compound 0.04 µM)	relative viability (MLN4924 + Phenformin; first compound 0.1265 µM)	relative viability (MLN4924 + Phenformin; first compound 0.4 µM)	relative viability (MLN4924 + Phenformin; first compound 1.265 µM)	relative viability (MLN4924 + Phenformin; first compound 4 µM)	relative viability (GSK126 + Luminespib; first compound 0.08 µM)	relative viability (GSK126 + Luminespib; first compound 0.253 µM)	relative viability (GSK126 + Luminespib; first compound 0.8 µM)	relative viability (GSK126 + Luminespib; first compound 2.53 µM)	relative viability (GSK126 + Luminespib; first compound 8 µM)	relative viability (MLN4924 + Crizotinib; first compound 0.04 µM)	relative viability (MLN4924 + Crizotinib; first compound 0.1265 µM)	relative viability (MLN4924 + Crizotinib; first compound 0.4 µM)	relative viability (MLN4924 + Crizotinib; first compound 1.265 µM)	relative viability (MLN4924 + Crizotinib; first compound 4 µM)	relative viability (MLN4924 + Luminespib; first compound 0.04 µM)	relative viability (MLN4924 + Luminespib; first compound 0.1265 µM)	relative viability (MLN4924 + Luminespib; first compound 0.4 µM)	relative viability (MLN4924 + Luminespib; first compound 1.265 µM)	relative viability (MLN4924 + Luminespib; first compound 4 µM)
PC-14	0.473	0.564	0.37	0.151	0.127	0.163	0.144	0.174	0.155	0.114	0.872	0.888	0.591	0.161	0.109	0.151	0.164	0.114	0.116	0.152
HCC-15	0.319	0.191	0.145	0.0825	0.0982	0.494	0.268	0.41	0.286	0.245	0.505	0.2	0.227	0.0834	0.0819	0.168	0.171	0.161	0.125	0.0876
NCI-H2347	0.376	0.453	0.381	0.21	0.302	0.757	0.701	0.308	0.392	0.267	0.525	0.53	0.484	0.42	0.412	0.397	0.351	0.575	0.332	0.255
LOU-NH91	0.6	0.853	0.763	0.467	0.425	0.303	0.337	0.325	0.364	0.357	0.706	0.743	0.652	0.489	0.398	0.334	0.3	0.281	0.246	0.303
LCLC-103H	0.358	0.368	0.347	0.157	0.143	1.16	0.931	0.908	1.01	0.994	1.13	1.09	0.713	0.289	0.321	0.947	0.92	0.724	0.217	0.166
EMC-BAC-2	0.37	0.424	0.296	0.193	0.218	1.19	1.17	1.17	1.11	1.24	0.601	0.283	0.242	0.164	0.167	0.906	0.495	0.303	0.276	0.325
NCI-H2228	0.327	0.38	0.194	0.134	0.146	0.173	0.12	0.116	0.118	0.205		0.443	0.4	0.192	0.226	0.178	0.181	0.195	0.19	0.113
HOP-62	0.393	0.335	0.134	0.0578	0.0991	0.938	0.863	0.943	0.889	0.783	0.701	0.261	0.167	0.0427	0.0866	0.811	0.579	0.264	0.126	0.12
NCI-H727	0.827	0.438	0.278	0.292	0.33	0.482	0.375	0.421	0.345	0.336	0.672	0.274	0.266	0.274	0.222	0.31	0.382	0.368	0.383	0.235
COR-L 105	0.567	0.366	0.325	0.244	0.301	1.01	0.74	0.78	0.734	0.839	0.802	0.472	0.344	0.194	0.222	0.494	0.553	0.283	0.201	0.236
NCI-H358	0.354	0.366	0.171	0.0905	0.0916	0.39	0.382	0.366	0.422	0.283	0.69	0.506	0.285	0.168	0.156	0.338	0.422	0.214	0.105	0.111
SK-MES-1	0.555	0.444	0.309	0.202	0.2	0.856	0.76	0.823	0.866	0.908	1.02	0.842	0.702	0.228	0.22	0.866	0.694	0.551	0.173	0.195
LC-2-ad	0.506	0.491	0.372	0.223	0.203	1	1.19	0.948	1.04	1.01	0.517	0.419	0.341	0.264	0.156	0.959	0.764	0.507	0.282	0.274
H3255	0.374	0.331	0.265	0.264	0.325	0.988	0.968	0.898	0.95	1.01	0.77	0.668	0.341	0.242	0.247	0.843	0.73	0.541	0.288	0.292
A-427	0.193	0.165	0.171	0.146	0.151	1.29	0.87	0.82	0.884	0.769	0.4	0.239	0.243	0.149	0.182	0.465	0.245	0.263	0.178	0.216
NCI-H661	0.289	0.329	0.294	0.286	0.234	0.908	0.884	0.905	0.873	0.944	0.735	0.721	0.602	0.462	0.396	0.744	0.691	0.484	0.385	0.351
NCI-H1993	0.535	0.579	0.528	0.468	0.487	0.829	0.931	0.363	0.877	0.832	1.02	0.678	0.626	0.447	0.622	0.482	0.458	0.441	0.406	0.47

Cell Line	relative viability (MLN4924 + Phenformin; first compound 0.04 µM)	relative viability (MLN4924 + Phenformin; first compound 0.1265 µM)	relative viability (MLN4924 + Phenformin; first compound 0.4 µM)	relative viability (MLN4924 + Phenformin; first compound 1.265 µM)	relative viability (MLN4924 + Phenformin; first compound 4 µM)	relative viability (GSK126 + Luminespib; first compound 0.08 µM)	relative viability (GSK126 + Luminespib; first compound 0.253 µM)	relative viability (GSK126 + Luminespib; first compound 0.8 µM)	relative viability (GSK126 + Luminespib; first compound 2.53 µM)	relative viability (GSK126 + Luminespib; first compound 8 µM)	relative viability (MLN4924 + Crizotinib; first compound 0.04 µM)	relative viability (MLN4924 + Crizotinib; first compound 0.1265 µM)	relative viability (MLN4924 + Crizotinib; first compound 0.4 µM)	relative viability (MLN4924 + Crizotinib; first compound 1.265 µM)	relative viability (MLN4924 + Crizotinib; first compound 4 µM)	relative viability (MLN4924 + Luminespib; first compound 0.04 µM)	relative viability (MLN4924 + Luminespib; first compound 0.1265 µM)	relative viability (MLN4924 + Luminespib; first compound 0.4 µM)	relative viability (MLN4924 + Luminespib; first compound 1.265 µM)	relative viability (MLN4924 + Luminespib; first compound 4 µM)
NCI-H1944	0.22	0.187	0.173	0.112	0.122	0.873	0.72	0.621	0.678	0.923	1.06	0.842	0.649	0.179	0.167	0.783	0.482	0.578	0.171	0.168
SK-LU-1	0.514	0.558	0.22	0.0997	0.131	0.194	0.192	0.215	0.182	0.214	0.951	0.802	0.236	0.182	0.201	0.18	0.228	0.215	0.186	0.147
NCI-H1703											0.214	0.159	0.187	0.109	0.0907					
IA-LM											0.314	0.211	0.134	0.0572	0.0763					
SW 900	0.205	0.483	0.258	0.15	0.128	0.206	0.188	0.165	0.173	0.213						0.148	0.183	0.154	0.152	0.178
A549	0.0967	0.154	0.0425	0.0445	0.0437						0.772	0.634	0.416	0.0489	0.0552					
NCI-H1299											0.875	0.825	0.4	0.252	0.246					
NCI-H1623	0.503	0.479	0.39	0.274	0.248	0.617	0.425	0.502	0.512	0.42						0.523	0.477	0.454	0.282	0.293
NCI-H2342	0.705	0.661	0.613	0.551	0.501	0.731	0.875	0.799	0.857	0.878						0.773	0.757	0.682	0.723	0.464
NCI-H1793	0.292	0.367	0.313	0.224	0.183	0.152	0.177	0.164	0.258	0.152						0.162	0.125	0.182	0.297	0.148
NCI-H1395	0.447	0.499	0.481	0.382	0.357	0.64	0.62	0.606	0.689	0.545						0.867	0.619	0.539	0.429	0.346
HCC-366	0.612	0.634	0.454	0.11	0.0866						0.603	0.66	0.797	0.211	0.0183					
HCC-78	0.694	0.634	0.888	0.219	0.203						0.394	0.451	0.739	0.159	0.172					
NCI-H522	0.642	0.676	0.454	0.424	0.293	1.2	1.2	1.13	1.19	1.13						1.08	0.709	0.851	0.433	0.467
EBC-1											0.167	0.189	0.215	0.149	0.156					
Calu-6											0.677	0.426	0.197	0.0922	0.0977					
